Assay [1] addresses T1, CYP17 (human testicular microsome) (Homo sapiens, UniProt P05093).
T1 construct: using microsomal fraction from human testis (Celsis Cat #S00110) as the enzyme source; tissue Celsis S00110; host or cells: human testis microsomal fraction
T1 sequence (P05093 1-508): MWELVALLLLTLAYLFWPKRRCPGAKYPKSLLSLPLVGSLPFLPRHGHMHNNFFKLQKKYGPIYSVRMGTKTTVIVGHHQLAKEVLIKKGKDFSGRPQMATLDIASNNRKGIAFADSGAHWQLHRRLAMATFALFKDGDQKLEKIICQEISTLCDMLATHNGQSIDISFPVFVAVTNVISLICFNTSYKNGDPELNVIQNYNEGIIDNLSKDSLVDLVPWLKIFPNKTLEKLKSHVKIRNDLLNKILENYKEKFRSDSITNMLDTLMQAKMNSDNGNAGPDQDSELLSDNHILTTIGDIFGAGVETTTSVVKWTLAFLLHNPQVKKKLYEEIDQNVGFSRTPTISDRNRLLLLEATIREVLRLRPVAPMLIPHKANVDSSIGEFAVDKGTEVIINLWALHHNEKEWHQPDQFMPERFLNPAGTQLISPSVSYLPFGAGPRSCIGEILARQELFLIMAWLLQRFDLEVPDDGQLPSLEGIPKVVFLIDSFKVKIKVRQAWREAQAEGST
Briefly: CYP17 enzymatic assay (IC50) (Biological Example 4). In kind it is biochemical. The settings on record: human testicular microsome.

Assay [2] deals with T1, CYP17 (human testicular microsome). Briefly: CYP17 enzymatic assay (% inhibition at 1 nM) (Biological Example 12). In kind it is biochemical.
The mark [3] stands for this setting: read-out: Biological Example No. 4: CYP17 enzymatic assay IC50.
The mark [4] stands for this setting: compound at 1 nM, read-out: Biological Example No. 12: CYP17 enzymatic assay % inhibition at 1 nM.
[5] abbreviates: read-out: CYP17 enzymatic assay IC50 (Biological Example No. 4).
Setting [6] is: compound at 1 nM, read-out: CYP17 enzymatic assay % inhibition at 1 nM (Biological Example No. 12).
The mark [7] stands for this setting: test compound at 1 nM, read-out: CYP17 enzymatic assay percent inhibition at 1 nM (Biological Example No. 12).

Read-outs that look alike come from different tables or passages of the source.

With `CC1=C2CC[C@@H]3[C@H](CC[C@]4(C)C(c5cccnc5)=CC[C@@H]34)[C@@]2(C)CCC1O` (mixture of isomers) [Compound 302, (10R,13S)-4,10,13-trimethyl-17-(pyridin-3-yl)-2,3,6,7,8,9,10,11,12,13,14,15-dodecahydro-1H-cyclopenta[a]phenanthren-3-ol], the IC50 in assay [1] (setting [3]) was under 11 nM. Moreover, the inhibition at 0.001 µM in assay [2] (setting [4]) was in the range of 10 to 50%.
Take `CC(=O)O[C@H]1CC[C@@]2(C)C(=CC[C@H]3C4=CC=C(n5ccnc5)[C@@]4(C)CC[C@@H]32)C1` [Compound 73, (3S,10R,13S)-17-(1H-imidazol-1-yl)-10,13-dimethyl-2,3,4,7,8,9,10,11,12,13-decahydro-1H-cyclopenta[a]phenanthren-3-yl acetate]: in assay [1] (DHEA by ELISA, read-out: Biological Example No. 4: CYP17 enzymatic assay IC50), the 50% inhibitory concentration (IC50) was under 11 nM.
In the case of `C[C@]12CC[C@@H](NC(=O)C3CCC3)CC1=CCC1C2CC[C@]2(C)C(c3cccnc3)=CCC12` (stereo partly drawn) [Compound 226, N-((3R,10R,13S)-10,13-dimethyl-17-(pyridin-3-yl)-2,3,4,7,8,9,10,11,12,13,14,15-dodecahydro-1H-cyclopenta[a]phenanthren-3-yl)cyclobutanecarboxamide], the IC50 in assay [1] (setting [5]) is under 11 nM. Besides, the inhibition at 0.001 µM in assay [2] (setting [6]) is over 50%.
In the same order, the values of `Cc1cncc(C2=CC[C@H]3[C@@H]4CC=C5C[C@H](NC(=O)C6CC6)CC[C@]5(C)[C@H]4CC[C@]23C)c1` [Compound 227, N-((3R,10R,13S)-10,13-dimethyl-17-(5-methylpyridin-3-yl)-2,3,4,7,8,9,10,11,12,13,14,15-dodecahydro-1H-cyclopenta[a]phenanthren-3-yl)cyclopropanecarboxamide] are under 11 nM and over 50%.
Regarding `CC1=C2CCC3C4=CC=C(c5cccnc5)[C@@]4(C)CCC3[C@@]2(C)CCC1O` (stereo partly drawn) [Compound 299, (10R,13S)-4,10,13-trimethyl-17-(pyridin-3-yl)-2,3,6,7,8,9,10,11,12,13-decahydro-1H-cyclopenta[a]phenanthren-3-ol], the IC50 in assay [1] (setting [5]) was under 11 nM. Further, in assay [2] (setting [6]), the inhibition at 0.001 µM was under 10%.
Regarding `C[C@]12CC[C@H]3[C@@H](CC(F)C4(O)CC(=O)CC[C@]34C)[C@@H]1CC=C2c1cccnc1` (stereo partly drawn) [Compound 310e, (10R,13S)-6-fluoro-5-hydroxy-10,13-dimethyl-17-(pyridin-3-yl)-4,5,6,7,8,9,10,11,12,13,14,15-dodecahydro-1H-cyclopenta[a]phenanthren-3(2H)-one], the 50% inhibitory concentration (IC50) in assay [1] (setting [3]) was under 11 nM. The inhibition at 0.001 µM in assay [2] (setting [4]) is over 50%.
For `C[C@]12CC[C@H]3[C@@H](CC(F)C4(O)CC(=O)CC[C@]34C)[C@@H]1CC=C2c1cncc(F)c1` (stereo partly drawn) [Compound 324, (10R,13S)-6-fluoro-17-(5-fluoropyridin-3-yl)-5-hydroxy-10,13-dimethyl-4,5,6,7,8,9,10,11,12,13,14,15-dodecahydro-1H-cyclopenta[a]phenanthren-3(2H)-one] the same measures were under 11 nM and over 50%.
`C[C@]12CCC3C(CCC4CC(F)(F)CC[C@@]43C)C1=CC=C2c1cncc(F)c1` (stereo partly drawn) [Compound 402, 3-((10S,13S)-3,3-difluoro-10,13-dimethyl-2,3,4,5,6,7,8,9,10,11,12,13-dodecahydro-1H-cyclopenta[a]phenanthren-17-yl)-5-fluoropyridine]: the IC50 in assay [1] (setting [3]) was over 25 nM.
Same read-out and setting: for `C[C@]12CCC3C(CCC4CC(F)(F)CC[C@@]43C)C1=CC=C2c1cccnc1` (stereo partly drawn) [Compound 403, 3-((10S,13S)-3,3-difluoro-10,13-dimethyl-2,3,4,5,6,7,8,9,10,11,12,13-dodecahydro-1H-cyclopenta[a]phenanthren-17-yl)pyridine] the value was under 11 nM.
The same measure, in the same setting: for `C[C@]12CCC(F)(F)CC1CCC1C2CC[C@]2(C)C(c3cccnc3)=CCC12` (stereo partly drawn) [Compound 404, 3-((10S,13S)-3,3-difluoro-10,13-dimethyl-2,3,4,5,6,7,8,9,10,11,12,13,14,15-tetradecahydro-1H-cyclopenta[a]phenanthren-17-yl)pyridine] the value was under 11 nM.
For `C[C@]12CCC(F)(F)CC1CCC1C2CC[C@]2(C)C(c3cncc(F)c3)=CCC12` (stereo partly drawn) [Compound 405, 3-((10S,13S)-3,3-difluoro-10,13-dimethyl-2,3,4,5,6,7,8,9,10,11,12,13,14,15-tetradecahydro-1H-cyclopenta[a]phenanthren-17-yl)-5-fluoropyridine], the IC50 in assay [1] (setting [5]) was over 25 nM.
On the same count and under the same terms, the result for `C[C@]12CCC(F)(F)CC1CCC1C2CC[C@]2(C)C(n3ccnc3)=CCC12` (stereo partly drawn) [Compound 406, 1-((10S,13S)-3,3-difluoro-10,13-dimethyl-2,3,4,5,6,7,8,9,10,11,12,13,14,15-tetradecahydro-1H-cyclopenta[a]phenanthren-17-yl)-1H-imidazole] reads under 11 nM.
For the molecule `CC1CC2C3CC=C(c4cccnc4)[C@@]3(C)CCC2[C@@]2(C)CC[C@H](O)CC12O` (stereo partly drawn) [Compound 410, (3S,10R,13S)-6,10,13-trimethyl-17-(pyridin-3-yl)-2,3,4,5,6,7,8,9,10,11,12,13,14,15-tetradecahydro-1H-cyclopenta[a]phenanthrene-3,5-diol], in assay [1] (setting [3]), the half-inhibitory concentration (IC50) is under 11 nM. For the same molecule, the inhibition at 0.001 µM in assay [2] (setting [4]) was over 50%.
As to `C[C@]12CCNC(=O)CC1CCC1C2CC[C@]2(C)C(c3cncc(C(F)F)c3)=CCC12` (stereo partly drawn) [Compound 483, (5aS,7aS)-8-(5-(difluoromethyl)pyridin-3-yl)-5a,7a-dimethyl-3,4,5,5a,5b,6,7,7a,10,10a,10b,11,12,12a-tetradecahydrocyclopenta[5,6]naphtho[1,2-d]azepin-2(1H)-one], the inhibition at 0.001 µM in assay [2] (setting [4]) is over 50%.
Take `Cc1ccncc1C1=CC[C@H]2[C@@H]3CC[C@H]4CNC(=O)CC[C@]4(C)[C@H]3CC[C@]12C` [Compound 484, (5aR,5bS,7aS,10aS,10bR,12aR)-5a,7a-dimethyl-8-(4-methylpyridin-3-yl)-1,2,5,5a,5b,6,7,7a,10,10a,10b,11,12,12a-tetradecahydrocyclopenta[5,6]naphtho[2,1-c]azepin-3(4H)-one]: the inhibition at 0.001 µM in assay [2] (setting [7]) lay within 10 to 50%.
Still for that read-out and setting: the result for `Cc1ccncc1C1=CC=C2C3CCC4C[C@@H](O)CC[C@]4(C)C3CC[C@]12C` (stereo partly drawn) [Compound 485, (3S,10S,13S)-10,13-dimethyl-17-(4-methylpyridin-3-yl)-2,3,4,5,6,7,8,9,10,11,12,13-dodecahydro-1H-cyclopenta[a]phenanthren-3-ol] reads 10 to 50%; that for `Cc1ccncc1C1=CC=C2C3CCC4CC(=O)CC[C@]4(C)C3CC[C@]12C` (stereo partly drawn) [Compound 486, (10S,13S)-10,13-dimethyl-17-(4-methylpyridin-3-yl)-4,5,6,7,8,9,10,11,12,13-decahydro-1H-cyclopenta[a]phenanthren-3(2H)-one], 10 to 50%; that for `CCc1ccncc1C1=CC=C2C3CCC4C[C@@H](OC(C)=O)CC[C@]4(C)C3CC[C@]12C` (stereo partly drawn) [Compound 487, (3S,10S,13S)-17-(4-ethylpyridin-3-yl)-10,13-dimethyl-2,3,4,5,6,7,8,9,10,11,12,13-dodecahydro-1H-cyclopenta[a]phenanthren-3-yl acetate], 10 to 50%.
On the same count and under the same terms, the result for `CCc1ccncc1C1=CC=C2C3CCC4CC(=O)CC[C@]4(C)C3CC[C@]12C` (stereo partly drawn) [Compound 488, (10S,13S)-17-(4-ethylpyridin-3-yl)-10,13-dimethyl-4,5,6,7,8,9,10,11,12,13-decahydro-1H-cyclopenta[a]phenanthren-3(2H)-one] reads 10 to 50%.

The IC50 is the concentration that inhibits the measured activity by half. What is called inhibition is the share of the control response that was lost under treatment.
